The target of this data set is T1, CYP2C9 (Homo sapiens, UniProt P11712).
T1 construct: human liver microsomes
In words: inhibition of S-warfarin 7-hydroxylation (CYP2C9 marker) in human liver microsomes, HPLC-FLD. It counts as biochemical. In general terms: Liver microsomes are vesicles of endoplasmic reticulum, rich in cytochrome P450 enzymes.

T1 sequence (P11712 whole entry): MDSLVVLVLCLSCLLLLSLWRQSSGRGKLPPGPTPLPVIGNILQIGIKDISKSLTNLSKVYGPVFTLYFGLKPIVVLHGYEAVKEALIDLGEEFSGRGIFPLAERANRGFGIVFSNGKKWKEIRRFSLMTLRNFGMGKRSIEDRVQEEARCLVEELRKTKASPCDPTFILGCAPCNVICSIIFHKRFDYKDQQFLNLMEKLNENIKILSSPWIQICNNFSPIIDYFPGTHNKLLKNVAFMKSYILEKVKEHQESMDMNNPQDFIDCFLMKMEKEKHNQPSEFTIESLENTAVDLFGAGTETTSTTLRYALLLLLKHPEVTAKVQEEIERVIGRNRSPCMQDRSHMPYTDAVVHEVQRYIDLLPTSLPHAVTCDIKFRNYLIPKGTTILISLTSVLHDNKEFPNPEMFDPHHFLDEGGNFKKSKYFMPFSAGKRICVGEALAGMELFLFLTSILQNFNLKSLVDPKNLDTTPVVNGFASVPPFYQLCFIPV

Broadly, the IC50 is the concentration that gives 50% inhibition. Turning to `O=C(/C=C/C=C/c1ccc2c(c1)OCO2)N1CCCCC1` [piperine], the IC50 was 14.2 ± 1.1 µM.

For the origin of these results see paper PMC11130653, “Development of a rapid HPLC-fluorescence method for monitoring warfarin metabolites formation: In vitro studies for evaluating the effect of piperine on warfarin metabolism and plasma coagulation” (Heliyon, 2024).
